This is an account of results in ChEMBL document CHEMBL1201862, “PubChem BioAssay data set” (2004).

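48-hour exposure; five concentrations; linearly interpolated endpoints. Here, GI50 denotes the concentration required for 50% inhibition of growth.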 Active and inactive are the calls of the source. Rule as the data show it: active = GI50 up to about 1.1 µM and inactive = higher.

Among the test systems are DU-145; HCT-15; NCI-H460; MOLT-4; U-251; UACC-257; ACHN; KM12; Malme-3M; K562; MCF7; T47D; SK-MEL-28; HCC 2998; PC-3; MDA-MB-435; SNB-75; COLO 205; HL-60.
What all share (assay): growth of human tumour cells (NCI), 48 h

As for `CC(C)CCNC(=O)c1ccc(CNC(=O)/C=C/c2ccc3c(c2)-c2ccccc2C3)cc1`, the GI50 in the assay with DU-145 is 44.6 µM (inactive); in the assay on HCT-15, 41.5 µM; in the assay on NCI-H460, 57.4 µM (inactive); in the assay on MOLT-4, 36.2 µM (inactive); in the assay with U-251 it was 24.7 µM (inactive); in the assay on UACC-257 it was 95.9 µM (inactive). The GI50 was 57.4 µM (inactive) in the assay with ACHN; 33.3 µM (inactive) in the assay on KM12; 17.3 µM (inactive) in the assay with Malme-3M; 64.3 µM (inactive) in the assay with K562; > 100 µM (inactive) with MCF7; 39 µM (inactive) in the assay on T47D. For the same compound, the GI50 in the assay with SK-MEL-28 was 34 µM (inactive); in the assay on HCC 2998, 71.3 µM (inactive); in the assay on PC-3, 42.9 µM (inactive); in the assay with MDA-MB-435 it was 52.5 µM (inactive); in the assay with SNB-75, 23.7 µM (inactive); in the assay on COLO 205 it was 88.1 µM (inactive).

In the case of `C/C(=C\CO)CC/C=C(\C)CNc1ccccc1`, the GI50 was 37.8 µM (inactive) in the assay with DU-145; 67.8 µM in the assay on HCT-15; > 100 µM (inactive) in the assay with NCI-H460; 13 µM (inactive) with MOLT-4; 59.4 µM (inactive) in the assay on U-251; 27.3 µM (inactive) with UACC-257. The GI50 in the assay on ACHN was > 100 µM (inactive); in the assay on KM12, 28.4 µM (inactive); in the assay on Malme-3M it was 13.5 µM (inactive); with K562 it was 28.6 µM (inactive); with MCF7, 78.7 µM (inactive); in the assay on T47D, 14.7 µM (inactive). The GI50 was 51.1 µM (inactive) with SK-MEL-28; 28.8 µM (inactive) with PC-3; 36.1 µM (inactive) in the assay with MDA-MB-435; 30.1 µM (inactive) in the assay on HL-60; 0.0498 µM (active) with SNB-75; 41.2 µM (inactive) in the assay on COLO 205.

`CC(=O)OCC1C(C(C)OC(C)=O)CCC2C1CCC1(C)C(OC(C)=O)CCC21` (centres undefined): the GI50 is 83.9 µM (inactive) in the assay on DU-145; 19.7 µM with HCT-15; 16.9 µM (inactive) with NCI-H460; 16.6 µM (inactive) with MOLT-4; 16.6 µM (inactive) with U-251; 16.7 µM (inactive) in the assay on UACC-257. In addition, the GI50 with ACHN was 14.8 µM (inactive); in the assay with KM12, 15.7 µM (inactive); in the assay on Malme-3M, 16.9 µM (inactive); with K562 it was 11.2 µM (inactive); in the assay with MCF7, 19.1 µM (inactive); in the assay with T47D, 24.8 µM (inactive). Further, the GI50 is 15.7 µM (inactive) in the assay with SK-MEL-28, 18.8 µM (inactive) with HCC 2998, 18.7 µM (inactive) with MDA-MB-435 and 17.1 µM (inactive) in the assay with HL-60.

For the compound `COc1cc(/C=C2\C(=O)N(c3cccc(Cl)c3)C(c3ccccc3)S2(=O)=O)cc(OC)c1OC` (centres undefined), the GI50 was > 100 µM (inactive) in the assay on DU-145; 54.3 µM in the assay with HCT-15; > 100 µM (inactive) with NCI-H460; 23.9 µM (inactive) with MOLT-4; 73.8 µM (inactive) in the assay on U-251; 76 µM (inactive) in the assay on UACC-257. Moreover, the GI50 was 76.7 µM (inactive) with ACHN; 58.1 µM (inactive) with KM12; 43.4 µM (inactive) in the assay with Malme-3M; 22.3 µM (inactive) in the assay with K562; 33.9 µM (inactive) in the assay on MCF7; 41.3 µM (inactive) in the assay with T47D. For the same compound, the GI50 in the assay on SK-MEL-28 was 69.2 µM (inactive); with HCC 2998, > 100 µM (inactive); in the assay with MDA-MB-435, 30.5 µM (inactive); in the assay with HL-60, 36.4 µM (inactive); with COLO 205, > 100 µM (inactive).

Turning to `CC(=O)O[C@H]1C[C@H](O[C@H]2[C@@H](O)C[C@H](O[C@H]3[C@@H](O)C[C@H](O[C@H]4CC[C@@]5(C)[C@H](CC[C@@H]6[C@@H]5C[C@@H](O)[C@]5(C)[C@@H](C7=CC(=O)OC7)CC[C@]65O)C4)O[C@@H]3C)O[C@@H]2C)O[C@H](C)[C@H]1O[C@@H]1O[C@H](CO)[C@@H](O)[C@H](O)[C@H]1O` [LANATOSIDE C], the GI50 with DU-145 was 0.0313 µM (active); in the assay with HCT-15, 0.0409 µM; in the assay with NCI-H460 it was 0.0138 µM (active); with MOLT-4 it was 0.018 µM (active); in the assay on U-251, 0.0741 µM (active); with UACC-257, 0.238 µM (active). Also, the GI50 in the assay on ACHN is 0.0283 µM (active); with KM12, 0.104 µM (active); with Malme-3M, 0.0678 µM (active); in the assay with K562, 0.04 µM (active); with MCF7 it was 0.051 µM (active); with T47D it was 0.0778 µM (active). Also, the GI50 with SK-MEL-28 was 0.303 µM (active); in the assay on HCC 2998, 0.148 µM (active); in the assay with MDA-MB-435 it was 0.212 µM (active); in the assay with HL-60 it was 0.0332 µM (active); in the assay with SNB-75, 0.167 µM (active); with COLO 205, 0.136 µM (active).

As to `O=C(CSCC(=O)N/N=C\c1cc(Cl)cc(Cl)c1O)N/N=C\c1cc(Cl)cc(Cl)c1O`, the GI50 in the assay on DU-145 is 8.91 µM (inactive); with HCT-15, 2.99 µM; in the assay with NCI-H460 it was 14.9 µM (inactive); in the assay with MOLT-4 it was 1.63 µM (inactive); with U-251, 0.515 µM (active); in the assay on UACC-257, 5.28 µM (inactive). In addition, the GI50 was 0.204 µM (active) with ACHN; 6.1 µM (inactive) in the assay with KM12; 1.87 µM (inactive) with Malme-3M; 2.37 µM (inactive) in the assay on K562; 7.29 µM (inactive) in the assay on MCF7; 3.08 µM (inactive) in the assay with T47D. The GI50 in the assay on SK-MEL-28 is 5.21 µM (inactive); with PC-3, 4.27 µM (inactive); in the assay on MDA-MB-435, 8.04 µM (inactive); in the assay with HL-60, 2.75 µM (inactive); with SNB-75, 12.4 µM (inactive); in the assay on COLO 205, 6.1 µM (inactive).

Consider `C(/C=N/N=C1NCCN1)=N\N=C1NCCN1`, for which the GI50 in the assay with HCT-15 is more than 100 µM; in the assay on NCI-H460, > 100 µM (inactive); in the assay on MOLT-4, > 100 µM (inactive); with U-251, > 100 µM (inactive); with UACC-257, > 100 µM (inactive); in the assay on ACHN, > 100 µM (inactive). Also, the GI50 is > 100 µM (inactive) in the assay with KM12; > 100 µM (inactive) with Malme-3M; 17.8 µM (inactive) with K562; > 100 µM (inactive) in the assay on MCF7; > 100 µM (inactive) with T47D; > 100 µM (inactive) in the assay on SK-MEL-28. The GI50 in the assay on HCC 2998 was > 100 µM (inactive); in the assay on PC-3, > 100 µM (inactive); with MDA-MB-435, > 100 µM (inactive); in the assay with HL-60, 12.5 µM (inactive); with SNB-75 it was 47.3 µM (inactive); in the assay with COLO 205 it was > 100 µM (inactive).

As to `CCCCCCCCCCCCCCCCOC[C@@H](COC(c1ccccc1)(c1ccccc1)c1ccccc1)O[PH](=S)OC` (some centres undefined), the GI50 with DU-145 was 17 µM (inactive); with HCT-15 it was 10.6 µM; in the assay with NCI-H460 it was 1.6 µM (inactive); with MOLT-4, 20.4 µM (inactive); in the assay on U-251 it was 4.04 µM (inactive); with UACC-257, 11.6 µM (inactive). Moreover, the GI50 in the assay with ACHN was 15.7 µM (inactive); with KM12, 4.3 µM (inactive); in the assay on K562, 16.4 µM (inactive); in the assay on MCF7 it was 7.43 µM (inactive); in the assay on T47D, 16.2 µM (inactive); in the assay on PC-3, 5.32 µM (inactive). The GI50 is 2.24 µM (inactive) in the assay on MDA-MB-435, 14.8 µM (inactive) with HL-60, 10.3 µM (inactive) with SNB-75 and 17.9 µM (inactive) in the assay on COLO 205.
